Reference: PubChem BioAssay (NCI)
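Assay format: 96-well plates, 48-hour exposure. Definition used: TGI = concentration required for complete inhibition of growth.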

How the values were obtained:
Test in all cases: NCI tumour cell line growth inhibition, 48 h
[1] = tested on: RPMI-8226 leukemia
[2] = tested on: SK-OV-3 ovarian
[3] = tested on: ACHN renal
[4] = tested on: HL-60(TB) leukemia
[5] = tested on: HCC-2998 colon
[6] = tested on: SK-MEL-2 melanoma
[7] = tested on: SR leukemia
[8] = tested on: A549 NSCLC
[9] = tested on: TK-10 renal
[10] = tested on: NCI-H23 lung
[11] = tested on: OVCAR-4 ovarian
[12] = tested on: MCF7 breast
[13] = tested on: SK-MEL-28 melanoma
[14] = tested on: RXF 393 renal
[15] = tested on: LXFL 529 NSCLC
[16] = tested on: SN12K1 renal
[17] = tested on: P388/ADR leukemia
[18] = tested on: HOP-18 NSCLC
[19] = tested on: P388 leukemia
[20] = tested on: SNB-78 CNS

Q: What does the source list for O=C(/C=C/c1ccsc1)c1ccc(Cl)s1?
A: TGI [1]: 45.5 µM; TGI [2]: > 100 µM; TGI [3]: > 100 µM; TGI [4]: 57.2 µM; TGI [5]: > 100 µM; TGI [6]: > 100 µM; TGI [7]: 54 µM; TGI [8]: > 100 µM; TGI [9]: > 100 µM; TGI [10]: > 100 µM; TGI [11]: > 100 µM; TGI [12]: > 100 µM; TGI [13]: > 100 µM

Q: What does the source list for Cn1nc2ccc3nccc(NCCNCCCl)c3c2n1?
A: TGI [1]: > 100 µM; TGI [14]: > 100 µM; TGI [2]: > 100 µM; TGI [3]: > 100 µM; TGI [4]: > 100 µM; TGI [5]: > 100 µM; TGI [6]: > 100 µM; TGI [7]: > 100 µM; TGI [8]: > 100 µM; TGI [9]: > 100 µM; TGI [15]: > 100 µM; TGI [11]: > 100 µM; TGI [13]: > 100 µM

Q: For O=C(O)C1C2CCC(C2)C1c1ccccc1 (stereo not given), which TGI [1] is on record?
A: > 100 µM

Q: And the TGI [14]?
A: > 100 µM

Q: And the TGI [2]?
A: > 100 µM

Q: And the TGI [3]?
A: > 100 µM

Q: What about the TGI [4] of the same compound?
A: > 100 µM

Q: What about the TGI [5] of the same compound?
A: > 100 µM

Q: What about the TGI [6] of the same compound?
A: > 100 µM

Q: And the TGI [7]?
A: > 100 µM

Q: And the TGI [8]?
A: > 100 µM

Q: And the TGI [9]?
A: > 100 µM

Q: And the TGI [10]?
A: > 100 µM

Q: And the TGI [12]?
A: > 100 µM

Q: And the TGI [13]?
A: > 100 µM

Q: With CC1=NN(C(=O)c2ccccc2)C(=O)C1N=Nc1ccccc1C(=O)O (stereo not given) as the compound, how does the TGI [1] read?
A: > 100 µM

Q: What about the TGI [14] of the same compound?
A: > 100 µM

Q: And the TGI [2]?
A: > 100 µM

Q: And the TGI [16]?
A: > 100 µM

Q: What about the TGI [4] of the same compound?
A: > 33.2 µM

Q: What about the TGI [17] of the same compound?
A: > 44.7 µM

Q: What about the TGI [18] of the same compound?
A: > 100 µM

Q: And the TGI [5]?
A: > 70.6 µM

Q: What about the TGI [19] of the same compound?
A: > 46.3 µM

Q: What about the TGI [6] of the same compound?
A: > 100 µM

Q: And the TGI [8]?
A: > 100 µM

Q: What about the TGI [10] of the same compound?
A: > 40.6 µM

Q: And the TGI [11]?
A: > 55 µM

Q: What about the TGI [12] of the same compound?
A: 19 µM

Q: And the TGI [13]?
A: > 100 µM

Q: Which TGI [1] does the source give for O=C(NN1C(=O)C(Cl)C1c1ccc([N+](=O)[O-])cc1)c1ccccc1O (stereo not given) here?
A: > 100 µM

Q: And the TGI [14]?
A: > 100 µM

Q: What about the TGI [2] of the same compound?
A: > 100 µM

Q: What about the TGI [4] of the same compound?
A: > 100 µM

Q: What about the TGI [6] of the same compound?
A: > 100 µM

Q: What about the TGI [7] of the same compound?
A: > 100 µM

Q: And the TGI [8]?
A: > 100 µM

Q: And the TGI [9]?
A: > 100 µM

Q: What about the TGI [15] of the same compound?
A: > 100 µM

Q: And the TGI [10]?
A: > 100 µM

Q: What about the TGI [11] of the same compound?
A: > 100 µM

Q: And the TGI [13]?
A: > 100 µM

Q: With CCOC(=O)CCc1c(C)c2c(O)cc(O)cc2oc1=O as the compound, how does the TGI [1] read?
A: > 100 µM

Q: What about the TGI [14] of the same compound?
A: > 100 µM

Q: And the TGI [2]?
A: > 100 µM

Q: And the TGI [16]?
A: > 100 µM

Q: And the TGI [4]?
A: > 100 µM

Q: What about the TGI [17] of the same compound?
A: > 100 µM

Q: What about the TGI [18] of the same compound?
A: > 100 µM

Q: And the TGI [5]?
A: > 100 µM

Q: What about the TGI [19] of the same compound?
A: > 100 µM

Q: And the TGI [6]?
A: > 100 µM

Q: What about the TGI [8] of the same compound?
A: > 100 µM

Q: And the TGI [20]?
A: > 100 µM

Q: What about the TGI [10] of the same compound?
A: > 100 µM

Q: What about the TGI [11] of the same compound?
A: > 100 µM

Q: What about the TGI [12] of the same compound?
A: > 100 µM

Q: What about the TGI [13] of the same compound?
A: > 100 µM

Q: COc1cc(C2c3cc4c(cc3[C@@H](Nc3ccc(N5CCOCC5)cc3)C3COC(=O)[C@H]23)OCO4)cc(OC)c1O (stereo not given in full) was tested. Which TGI [1] did it give?
A: 12.6 µM

Q: What about the TGI [14] of the same compound?
A: 5.86 µM

Q: And the TGI [2]?
A: 5.38 µM

Q: And the TGI [16]?
A: 3.6 µM

Q: What about the TGI [4] of the same compound?
A: 0.376 µM

Q: And the TGI [17]?
A: 1.07 µM

Q: What about the TGI [18] of the same compound?
A: 6.67 µM

Q: What about the TGI [5] of the same compound?
A: 4.1 µM

Q: And the TGI [19]?
A: 1.01 µM

Q: What about the TGI [6] of the same compound?
A: 5.4 µM

Q: What about the TGI [8] of the same compound?
A: 1.62 µM

Q: And the TGI [11]?
A: 25.9 µM

Q: What about the TGI [12] of the same compound?
A: 14.7 µM

Q: What about the TGI [13] of the same compound?
A: 26.8 µM

Q: With N/C(=N\N=C/c1cc(Cl)cc(Cl)c1O)NO as the compound, how does the TGI [1] read?
A: 39.9 µM

Q: And the TGI [14]?
A: 26.8 µM

Q: What about the TGI [2] of the same compound?
A: 24.2 µM

Q: What about the TGI [16] of the same compound?
A: 6.93 µM

Q: What about the TGI [4] of the same compound?
A: 0.694 µM

Q: What about the TGI [18] of the same compound?
A: > 100 µM

Q: What about the TGI [5] of the same compound?
A: 10.1 µM

Q: And the TGI [19]?
A: 1.49 µM

Q: What about the TGI [6] of the same compound?
A: 23.1 µM

Q: And the TGI [8]?
A: 36.5 µM

Q: And the TGI [20]?
A: > 100 µM

Q: And the TGI [10]?
A: 19.8 µM

Q: And the TGI [11]?
A: 20.9 µM

Q: What about the TGI [12] of the same compound?
A: 10.3 µM

Q: And the TGI [13]?
A: 44.7 µM

Q: How did the TGI [1] turn out when CCOC(=O)C1CCn2c(nc3c(=O)n(C)c(=O)n(C)c32)S1 (stereo not given) was run?
A: > 100 µM

Q: And the TGI [14]?
A: > 100 µM

Q: What about the TGI [2] of the same compound?
A: > 100 µM

Q: What about the TGI [3] of the same compound?
A: > 100 µM

Q: What about the TGI [4] of the same compound?
A: > 100 µM

Q: And the TGI [18]?
A: > 100 µM

Q: And the TGI [6]?
A: > 100 µM

Q: What about the TGI [7] of the same compound?
A: > 100 µM

Q: And the TGI [8]?
A: > 100 µM

Q: What about the TGI [9] of the same compound?
A: > 100 µM

Q: What about the TGI [15] of the same compound?
A: > 100 µM

Q: And the TGI [20]?
A: > 100 µM

Q: What about the TGI [10] of the same compound?
A: > 100 µM

Q: What about the TGI [11] of the same compound?
A: > 100 µM
